ChEMBL document CHEMBL4706524, “Discovery of sulfonyl hydrazone derivative as a new selective PDE4A and PDE4D inhibitor by lead-optimization approach on the prototype LASSBio-448: In vitro and in vivo preclinical studies” (Eur J Med Chem, 2020)

Assays:
[1] = pampa, 8 h
[2] = target: T1, 3',5'-cyclic-AMP phosphodiesterase 4D (Homo sapiens, UniProt Q08499); experiment: Inhibition of human recombinant PDE4D3 using FAM-cAMP as substrate at 10 uM measured after 1 hr by IMAP TR-FRET assay
Homo sapiens [3] = species: Homo sapiens; experiment: Inhibition of human recombinant PDE4A1A using FAM-cAMP as substrate at 10 uM measured after 1 hr by IMAP TR-FRET assay
[4] = target: T1, 3',5'-cyclic-AMP phosphodiesterase 4D; experiment: Inhibition of human recombinant PDE4D3 using FAM-cAMP as substrate measured after 1 hr by IMAP TR-FRET assay relative to control
in vitro = conditions: PAMPA
Mus musculus [5] = experiment: Antiinflammatory activity against A/J mouse assessed as decrease in LPS-induced TNFalpha production in lungs at 3 umol/kg, po treated via gavage for 1 hr before LPS stimulation and measured after 24 hrs by ELISA relative to control; type: functional; conditions: 25 h
[6] = Inhibition of human recombinant PDE4A1A using FAM-cAMP as substrate measured after 1 hr by IMAP TR-FRET assay
[7] = target: T2, 3',5'-cyclic-AMP phosphodiesterase 4C (Homo sapiens, UniProt Q08493); experiment: Inhibition of human recombinant PDE4C using FAM-cAMP as substrate at 10 uM measured after 1 hr by IMAP TR-FRET assay
T2 sequence (Q08493 whole entry): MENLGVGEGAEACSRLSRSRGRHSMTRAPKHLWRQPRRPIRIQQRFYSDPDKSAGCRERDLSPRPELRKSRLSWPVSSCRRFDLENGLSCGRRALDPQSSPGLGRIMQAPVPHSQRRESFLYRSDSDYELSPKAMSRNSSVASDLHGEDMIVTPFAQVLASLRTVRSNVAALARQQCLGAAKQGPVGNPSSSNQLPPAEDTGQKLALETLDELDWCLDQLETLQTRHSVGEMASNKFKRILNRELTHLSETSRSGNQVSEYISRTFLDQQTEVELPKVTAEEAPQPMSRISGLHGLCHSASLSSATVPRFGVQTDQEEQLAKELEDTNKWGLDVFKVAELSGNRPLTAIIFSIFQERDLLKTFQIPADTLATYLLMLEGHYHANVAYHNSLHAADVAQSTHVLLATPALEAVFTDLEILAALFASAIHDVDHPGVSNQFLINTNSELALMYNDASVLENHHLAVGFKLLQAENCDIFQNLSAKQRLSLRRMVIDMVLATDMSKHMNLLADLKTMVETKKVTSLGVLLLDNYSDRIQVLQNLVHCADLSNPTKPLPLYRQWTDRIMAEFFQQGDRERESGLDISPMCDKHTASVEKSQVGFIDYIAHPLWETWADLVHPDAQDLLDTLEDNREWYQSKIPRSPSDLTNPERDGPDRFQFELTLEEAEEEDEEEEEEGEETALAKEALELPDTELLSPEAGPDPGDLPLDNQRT

Mus musculus [8] = experiment: Antiinflammatory activity against A/J mouse assessed as decrease in LPS-induced airway hyperreactivity at 3 umol/kg, po treated via gavage for 1 hr before LPS stimulation measured after 24 hrs by whole body plethysmography relative to control; type: functional; conditions: 25 h
Homo sapiens [9] = species: Homo sapiens; experiment: Inhibition of human recombinant PDE4A1A using FAM-cAMP as substrate measured after 1 hr by IMAP TR-FRET assay relative to control
[10] = target: T3, 3',5'-cyclic-AMP phosphodiesterase 4B (Homo sapiens, UniProt Q07343); experiment: Inhibition of human recombinant PDE4B1 using FAM-cAMP as substrate at 10 uM measured after 1 hr by IMAP TR-FRET assay
T3 sequence (Q07343 whole entry): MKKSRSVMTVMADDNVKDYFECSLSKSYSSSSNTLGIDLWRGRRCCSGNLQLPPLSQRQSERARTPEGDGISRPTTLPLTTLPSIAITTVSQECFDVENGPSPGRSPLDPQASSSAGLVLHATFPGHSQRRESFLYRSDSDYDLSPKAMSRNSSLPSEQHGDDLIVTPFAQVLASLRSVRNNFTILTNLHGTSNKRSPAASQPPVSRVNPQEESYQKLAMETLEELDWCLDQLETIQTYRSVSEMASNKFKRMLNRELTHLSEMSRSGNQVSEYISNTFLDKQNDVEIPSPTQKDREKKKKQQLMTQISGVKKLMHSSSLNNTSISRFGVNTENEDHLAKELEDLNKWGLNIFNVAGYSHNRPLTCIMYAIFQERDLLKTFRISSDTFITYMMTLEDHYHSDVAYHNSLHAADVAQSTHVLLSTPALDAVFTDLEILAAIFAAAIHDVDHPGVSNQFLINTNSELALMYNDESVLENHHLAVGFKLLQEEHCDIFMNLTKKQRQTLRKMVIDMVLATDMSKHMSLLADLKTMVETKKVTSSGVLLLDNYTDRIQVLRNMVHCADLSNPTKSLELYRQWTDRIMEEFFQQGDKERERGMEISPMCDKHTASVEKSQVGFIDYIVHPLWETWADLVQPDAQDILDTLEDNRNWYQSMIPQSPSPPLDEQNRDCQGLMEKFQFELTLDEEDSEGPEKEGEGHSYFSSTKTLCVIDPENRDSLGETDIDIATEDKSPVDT

[11] = target: T1, 3',5'-cyclic-AMP phosphodiesterase 4D
Description: Inhibition of PDE4D (unknown origin)

[12] = target: T2, 3',5'-cyclic-AMP phosphodiesterase 4C
Description: Inhibition of PDE4C (unknown origin)

[13] = target: 3',5'-cyclic-AMP phosphodiesterase 4A (Homo sapiens, UniProt P27815); experiment: Inhibition of PDE4A (unknown origin)
Chain of 3',5'-cyclic-AMP phosphodiesterase 4A (P27815 whole entry): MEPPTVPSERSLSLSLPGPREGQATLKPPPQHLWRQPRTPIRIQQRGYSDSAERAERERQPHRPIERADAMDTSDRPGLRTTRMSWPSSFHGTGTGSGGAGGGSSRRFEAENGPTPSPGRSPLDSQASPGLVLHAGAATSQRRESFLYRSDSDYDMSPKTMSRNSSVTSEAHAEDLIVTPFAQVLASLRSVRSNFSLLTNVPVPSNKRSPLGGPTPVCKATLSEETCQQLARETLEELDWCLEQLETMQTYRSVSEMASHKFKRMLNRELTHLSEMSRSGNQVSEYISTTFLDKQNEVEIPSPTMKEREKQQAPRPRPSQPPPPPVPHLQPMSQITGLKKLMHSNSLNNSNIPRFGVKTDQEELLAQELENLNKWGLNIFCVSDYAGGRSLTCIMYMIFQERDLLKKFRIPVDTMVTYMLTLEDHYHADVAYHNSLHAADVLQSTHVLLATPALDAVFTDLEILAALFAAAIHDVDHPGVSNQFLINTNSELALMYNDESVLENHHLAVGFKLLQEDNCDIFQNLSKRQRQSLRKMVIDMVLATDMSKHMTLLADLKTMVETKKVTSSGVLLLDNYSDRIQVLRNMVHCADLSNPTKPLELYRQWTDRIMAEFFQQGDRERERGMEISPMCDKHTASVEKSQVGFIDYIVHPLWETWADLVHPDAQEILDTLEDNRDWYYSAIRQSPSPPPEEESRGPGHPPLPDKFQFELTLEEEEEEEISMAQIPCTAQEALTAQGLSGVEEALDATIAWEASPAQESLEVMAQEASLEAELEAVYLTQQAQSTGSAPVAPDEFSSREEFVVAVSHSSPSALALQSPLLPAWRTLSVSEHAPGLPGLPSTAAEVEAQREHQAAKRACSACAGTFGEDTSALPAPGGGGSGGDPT

[14] = target: T3, 3',5'-cyclic-AMP phosphodiesterase 4B; experiment: Inhibition of PDE4B (unknown origin)

T1 sequence (Q08499 whole entry): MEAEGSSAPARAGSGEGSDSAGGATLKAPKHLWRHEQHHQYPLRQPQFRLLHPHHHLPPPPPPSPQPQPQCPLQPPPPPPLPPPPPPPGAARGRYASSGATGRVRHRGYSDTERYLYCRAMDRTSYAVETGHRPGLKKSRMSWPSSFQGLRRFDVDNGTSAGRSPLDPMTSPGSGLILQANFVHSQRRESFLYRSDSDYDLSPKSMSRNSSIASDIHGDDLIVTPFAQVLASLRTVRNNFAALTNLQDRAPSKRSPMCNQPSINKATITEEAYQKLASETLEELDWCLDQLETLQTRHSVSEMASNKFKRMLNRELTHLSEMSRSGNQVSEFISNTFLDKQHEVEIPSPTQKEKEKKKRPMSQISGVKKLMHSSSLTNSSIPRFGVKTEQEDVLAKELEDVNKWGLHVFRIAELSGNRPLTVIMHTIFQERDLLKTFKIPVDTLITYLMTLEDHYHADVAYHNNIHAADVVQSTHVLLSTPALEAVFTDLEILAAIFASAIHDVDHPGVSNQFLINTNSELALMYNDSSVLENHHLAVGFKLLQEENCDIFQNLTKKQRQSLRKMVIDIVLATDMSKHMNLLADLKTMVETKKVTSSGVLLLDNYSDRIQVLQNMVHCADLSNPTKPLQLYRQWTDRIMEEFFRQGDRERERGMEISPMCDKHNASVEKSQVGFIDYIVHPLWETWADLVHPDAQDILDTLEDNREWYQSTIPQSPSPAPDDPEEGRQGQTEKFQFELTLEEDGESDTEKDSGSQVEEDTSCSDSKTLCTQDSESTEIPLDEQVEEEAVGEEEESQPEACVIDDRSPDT

Row | Drug absorption [1] | inhibition [2] | inhibition (Homo sapiens [3]) | Emax [4] | Papp at 8 h (in vitro) | IC50 [6] | inhibition [7] | Emax (Homo sapiens [9]) | inhibition [10] | IC50 [11] | IC50 [12] | IC50 [13] | IC50 [14] | Compound | inhibition in vivo at 3 µmol/kg (Mus musculus [5]) | inhibition in vivo at 3 µmol/kg (Mus musculus [8])
1 | 93.74% | 98.8% | 91.3% | 99% | 7.29 ×10⁻⁶ cm/s | 200 nM | 98.5% | 99% | 91.3% |  |  |  |  | COc1ccc([C@]2(C#N)CC[C@@H](C(=O)O)CC2)cc1OC1CCCC1 [CILOMILAST] | 98.9% | 94%
2 |  |  |  |  |  |  |  |  |  | 3 nM | 3860 nM | 310 nM | 287 nM | C[C@@H](Oc1ccc(CNC(=O)c2cccnc2Oc2ccc3c(c2)OCO3)c(F)c1)C(=O)O |  | 
